Tests used:
[1] = tested on: neonatal rat cardiac fibroblasts; assay: TGF-β induced proliferation of cardiac fibroblasts (MTT); assay type: cell-based; details: cultured neonatal rat cardiac fibroblasts
Description: This invention disclosed that compound A can prevent TGF-β induced proliferation in cultured neonatal rat cardiac fibroblasts. Furthermore, this invention disclosed that there were a significant increase in cGMP levels in compound A treated cardiac fibroblasts which is related to its anti-hypertrophy and anti-fibrosis roles.
Neonatal rat cardiac fibroblasts were isolated from 1-2-day-old Sprague-Dawley rats as described previously. Briefly, hearts from newborn 1-2-day-old Sprague-Dawley rats were minced on ice, and cells were isolated by trypsin incubation at 37° C. Non-cardiomyocytes were separated from the cardiomyocytes by differential pre-plating, and then cardiomyocytes were removed with fibroblasts seeded in culture dishes. The cells were passaged after 3 days, using a 0.05% trypsin solution. Cells were cultured in DEME/F12 medium with 5% fetal calf serum, and maintained at 37° C., 5% CO2 condition.
Viability of cardiac fibroblast in culture was assessed using the 3-(4,5-dimethylthiazol-2-yl)-2,5-diphenyltetrazolium bromide (MTT) method. The assay measures the ability of an active mitochondrial enzyme to reduce the MTT substrate (yellow to blue) in live cells. Isolated primary cardiac fibroblasts were plated in serum-free conditions on 96-well plates. […] Absorbance was measured at 460 nm.

[2] = tested on: mitochondrial KATP channel; assay: Mitochondrial KATP channel effect
Description: This invention disclosed exclusively that compound A per se had no effect on either sarcolemma or mitochondrial KATP channel. Instead, compound A is acting only as a sensitizer which render the KATP channel response greater to known KATP channel openers, such as pinacidil and to change of ATP.

[3] = tested on: cerebral ischemia/reperfusion (I/R) injury; details: within 24 hours; cited from earlier work
[4] = tested on: acute ischemia-reperfusion heart injuries; details: cited from earlier work
[5] = tested on: male rats; assay: Penile erection in male rats; assay type: in vivo; details: relative higher dose
[6] = tested on: cerebral I/R injured rats; assay: Late phase cerebral I/R injury (7 days) in rats; assay type: in vivo; details: 7 days after I/R
Method: Reactive astrogliosis is a common pathological process in late phase of cerebral I/R injury, which contributes to further neuronal damages. It is also seen in neuronal degenerative disease such as Alzheimer's disease in the present invention, compound A given consecutively for 7 days in cerebral I/R injured rats. […] The therapeutic effects of either single or consecutive 7 treatments with compound A were Analyzed and compared at 7 days after I/R injury.

[7] = tested on: ROS (reactive oxygen species); assay: ROS in cytosol and mitochondria of cardiomyocytes; assay type: cell-based; details: cardiomyocytes hypertrophy
Description: In this invention, we disclosed that compound A could suppress cardiomyocytes hypertrophy by reducing ROS (reactive oxygen species) in either cytosol and mitochondria in addition to the inhibition of PED, while classic PED inhibitor such as sildenafil has no such effects been reported in prior arts. This explains the superiority of compound A over sildenafil in suppressing hypertrophy and other diseases. This invention disclosed a new use of compound A as PED inhibitor with novel mechanism which is different than what been disclosed in prior art.

[8] = tested on: TAC rats; assay: Actin remodeling (FITC-phalloidin) and cardiac fibrosis (picrosirius red) in TAC rats; assay type: in vivo, Wistar rats; details: for reduction in interstitial fibrosis: 8 mg/kg/d; for level of myocardia F-actin (FITC-phalloidin staining): 9 weeks TAC, compound A 8 mg/kg/d, sildenafil 70 mg/kg/d
Method: TAC between the innominate artery and the left carotid artery was conducted to induce pressure overload for 3 weeks (3-week TAC) or 9 weeks (9-week TAC). Sham control animals underwent the same operation, but without aortic constriction. All surgical procedures were performed with animals anesthetized with 3% pentobarbital sodium injected intraperitoneally (i.p. 40 mg/kg). During the surgery period, rats were intubated and ventilated with a rodent ventilator (Harvard Apparatus, Holliston, Mass., USA). Both 3-week and 9-week TAC-exposed rats were randomly divided into five groups (n=8-10 rats) including a TAC vehicle control, COMPOUND A, low (TAC+COMPOUND A (L), 1 mg/kg/d), middle (TAC+COMPOUND A (M), 2 mg/kg/d), high (TAC+COMPOUND A (H), 8 mg/kg/d) dose group respectively, and sildenafil (TAC+Sil, 70 mg/kg/d) as a positive control group. Sham controls were all treated with vehicle. Acute and chronic mortality from the TAC procedure was <5%. The treat group was intra-gastric administrated with sodium salt of compound A which was solved in a mixture of saline and organic solvent of the same volume (1:1, 0.5 ml) and sildenafil which was solved in distilled water. All drugs and vehicle treatment were given twice a day after surgery for three days as designed. The animals were examined at 3 weeks and 9 weeks after surgery accordingly. At the end of the observation periods and after hemodynamic measurement in vivo, all animals were sacrificed and hearts were explanted for further Analyses. Tissue sections of rat hearts were fixed in 10% neutral-buffered formalin, embedded in paraffin, cut into […] serial sections, and then stained with haematoxylin and eosin (H&E), picrosirius red or phalloidin. Nikon system and Zeiss confocal microscope were used to capture digital images. Stained with H&E was to evaluate cell size, stained with picrosirius red (sigma CA) was to test fibrosis using standard procedure and the amount of F-actin was stained with phalloidin. We determined cross sectional cell area and interstitial collagen fraction using computer-assisted image analysis (Image-Pro Plus software), with the observer blinded as to tissue source. At least four or five different hearts were quantified for analysis. Some transcription factors important for hypertrophy influence actin dynamics, which is regulated by free G-actin and polymeric F-actin. A higher F-to-G actin content is an important result of the activation of hypertrophy pathways. The level of myocardia F-actin was measured by FITC-phalloidin staining. […] TAC increased the level of F actin, thus lead to actin dynamics. Both compound A and sildenafil can reduced the expression of F actin and maintain F/G actin balance. To determine whether compound A attenuates TAC-induced cardiac fibrosis, heart tissues were stained with picrosirius red to detect interstitial collagen distribution in left ventricular. In both 3-week and 9-week TAC groups, TAC induced significant interstitial fibrosis (P<0.05). The collagen content increased 5.7 fold and 7.5 fold in 3-week and 9-week TAC control groups, respectively, compared to sham control group.

[9] = tested on: hypoxia-induced PHT in rats; details: chronic hypoxia; cited from earlier work
[10] = tested on: mice exposed to chronic transverse aortic constriction; details: cited from earlier work

| Structure (SMILES) | TGF-β induced proliferation [1] | effect on mitochondrial KATP channel per se [2] | protection against cerebral I/R injury [3] | cardioprotective effect and arrhythmia [4] | penile erection [5] | I/R injury, consecutive 7 treatments comparing to single treatment [6] | accumulation of activated astrocytes ([6]; consecutive treatments) | infarct volume ([6]; given consecutively for 7 days) | neurological behavior and cellular morphology ([6]; given consecutively for 7 days) | neuronal survival ([6]; given consecutively for 7 days) | ROS in cytosol and mitochondria [7] | reduction in interstitial fibrosis ([8]; 3-week TAC) | reduction in interstitial fibrosis ([8]; 9-week TAC) | level of myocardia F-actin (FITC-phalloidin staining) [8] | rise in pulmonary artery pressure and vascular remodeling [9] | chamber and cardiomyocytes hypertrophy [10] | inhibition effect on cardiac fibrosis compared to compound A ([8]; TAC rats) |
| --- | --- | --- | --- | --- | --- | --- | --- | --- | --- | --- | --- | --- | --- | --- | --- | --- | --- |
| C[C@@]12CC[C@@H]3[C@@](CC[C@H]4[C@@]3(C)CCC[C@@]4(C)C(=O)O)(CC1=O)C2 [Compound A, (4α,8β,13β)-13-methyl-16-oxo-17-norkauran-18-oic acid] | prevent | had no effect | protect | cardioprotective effect | long lasting penile erection | significantly improved | significantly inhibited | reduction | improvement | enhancement | reducing | 58.2% | 80.8% | returned to control conditions |  |  |  |
| CCCc1nn(C)c2c(=O)[nH]c(-c3cc(S(=O)(=O)N4CCN(C)CC4)ccc3OCC)nc12 [sildenafil, reference compound] |  |  |  |  |  |  |  |  |  |  |  |  |  | returned to control conditions | attenuated | suppresses | less inhibition effect |

Source: patent US20180214400A1, “THE USE OF KAURANES COMPOUNDS IN THE MANUFACTURE OF MEDICAMENT FOR TREATMENT OF CADIAC HYPERTROPY AND PULMONARY HYPERTENSION” (KEY-PHARMA BIOMEDICAL INC., priority 2015, published 2018)
